Data published in patent US8906917B2, “Pyrimidine cyclohexyl glucocorticoid receptor modulators” (Corcept Therapeutics, Inc., priority 2011, dated 2014).

Legend:
[1] = target: T1, Human Recombinant Glucocorticoid Receptor (Homo sapiens, UniProt P04150); assay: Glucocorticoid receptor binding displacement assay with 3H-dexamethasone; conditions: displacement of 2.5 nM 3H-dexamethasone, 2.5 hrs at 4° C.; Ki from IC50 by Cheng-Prusoff; read-out: GR Binding Ki
T1 construct: This GR was a full-length steroid hormone receptor; host or cells: recombinant baculovirus-infected insect cells
T1 sequence (P04150 1-777): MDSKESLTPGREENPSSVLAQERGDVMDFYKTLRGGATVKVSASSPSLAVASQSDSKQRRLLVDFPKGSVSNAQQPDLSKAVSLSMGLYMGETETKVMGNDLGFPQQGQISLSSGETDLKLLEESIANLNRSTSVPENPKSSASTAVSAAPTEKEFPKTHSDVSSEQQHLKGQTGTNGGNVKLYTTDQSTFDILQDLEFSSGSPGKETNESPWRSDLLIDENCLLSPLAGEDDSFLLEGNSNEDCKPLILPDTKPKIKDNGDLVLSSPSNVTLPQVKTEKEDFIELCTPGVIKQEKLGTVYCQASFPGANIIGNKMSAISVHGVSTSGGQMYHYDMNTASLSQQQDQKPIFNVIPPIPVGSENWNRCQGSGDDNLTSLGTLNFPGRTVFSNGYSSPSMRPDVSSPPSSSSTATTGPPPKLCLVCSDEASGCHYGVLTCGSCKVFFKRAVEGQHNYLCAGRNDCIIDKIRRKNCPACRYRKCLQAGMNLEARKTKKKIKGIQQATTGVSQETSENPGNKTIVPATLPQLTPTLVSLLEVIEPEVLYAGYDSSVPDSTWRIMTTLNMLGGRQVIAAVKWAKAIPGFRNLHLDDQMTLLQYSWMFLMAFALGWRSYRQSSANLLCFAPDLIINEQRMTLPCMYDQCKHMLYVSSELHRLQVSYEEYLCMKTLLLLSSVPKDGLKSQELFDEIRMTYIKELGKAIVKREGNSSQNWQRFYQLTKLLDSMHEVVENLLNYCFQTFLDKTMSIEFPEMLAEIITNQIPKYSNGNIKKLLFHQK
Method: Binding protocol: Compounds were tested in a binding displacement assay using human recombinant glucocorticoid receptor with ^3H-dexamethasone as the ligand. The source of the receptor was recombinant baculovirus-infected insect cells. This GR was a full-length steroid hormone receptor likely to be associated with heat-shock and other endogenous proteins.
For the IC50 determinations, test compounds were tested at 6 concentrations in duplicate. Test compounds were diluted from 10 mM stock in 100% DMSO. The tested solutions were prepared at 2× final assay concentration in 2% DMSO/assay buffer.
All reagents and the assay plate were kept on ice during the addition of reagents. The reagents were added to wells of a v-bottomed polypropylene plate in the following order: 25 μl of 10 nM 3H-dexamethasone solution, 50 μl of TB/NSB/compound solution and 25 μl of 2 nM GR solution. After the additions, the incubation mixture was mixed and incubated for 2.5 hrs at 4° C.
Alter 2.5 hrs incubation, unbound counts were removed with dextran coated charcoal (DCC) as follows: 15 μl of DCC solution (10% DCC in assay buffer) was added to all wells and mixed (total volume 115 μl). The plate was centrifuged at 4000 rpm for 10 minutes at 4° C. 75 μl of the supernatants was carefully pipetted into an optiplate. 150 μl of scintillation cocktail were added (Microscint-40, Perkin Elmer). The plate was vigorously shaken for approx. 10 minutes and counted on Topcount.
The IC50 values were converted to Ki (the inhibition constant) using the Cheng-Prusoff equation.
Reagents: Assay buffer: 10 mM potassium phosphate buffer pH 7.6 containing 5 mM DTT, 10 mM sodium molybdate, 100 μM EDTA and 0.1% BSA.

[2] = target: T2, glucocorticoid receptors (endogenous) in SW1353/MMTV-5 cells (Homo sapiens, UniProt P04150); assay: GR functional assay using SW1353/MMTV-5 cells (MMTV-GRE luciferase reporter); assay type: cell-based
T2 construct: contains endogenous glucocorticoid receptors; endogenous in cells; host or cells: SW1353/MMTV-5 (human chondrosarcoma, stably transfected with pMAMneo-Luc reporter)
T2 sequence (P04150 1-777): T1 sequence (P04150 1-777)
Method: SW1353/MMTV-5 is an adherent human chondrosarcoma cell line that contains endogenous glucocorticoid receptors. It was transacted with a plasmid (pMAMneo-Luc) encoding firefly luciferase located behind a glucocorticoid-responsive element (GRE) derived from a viral promoter (long terminal repeat of mouse mammary tumor virus). A stable cell line SW1353/MMTV-5 was selected with geneticin, which was required to maintain this plasmid.
SW1353/MMTV-5 cells were distributed in 96-well plates and incubated in medium (without geneticin) for 24 hrs.

| Structure (SMILES) | Ki [1] [nM] | Ki [2] [nM] |
| --- | --- | --- |
| COCCn1c(=O)[nH]c([C@H]2CC[C@H](c3ccccc3)CC2)c(Cc2cccc(C(F)(F)F)c2)c1=O [Compound 13g, (E)-3-(2-Methoxy-ethyl)-6-(4-phenyl-cyclohexyl)-5-(3-trifluoromethyl-benzyl)-1H-pyrimidine-2,4-dione] | > 10 | > 100 |
| Cn1c(=O)[nH]c([C@H]2CC[C@H](c3ccccc3)CC2)c(Cc2ccccc2)c1=O [Compound 13h] | > 10 | 50 to 100 |
